Several values for one entry are separate records, joined by “and”; a condition that tells them apart may be missing. Equal entries are not always repeated.
What was measured:
human serum albumin = target: T1, human serum albumin (Homo sapiens, UniProt P02768); assay: HSA binding on Chiralpak HSA column; format: in vitro ADME; details: Chiralpak HSA column (50 × 3 mm, 5 μm)
T1 construct: purchased H13H-2433
Description: The mobile phase (A: NH4OAc, 50 mM in water, pH 7 and B: isopropanol) was freshly prepared for each experiment and only used for one day. The column was kept at room temperature and each run was stopped after detection of the signal to reduce the acquisition time. All substances were dissolved in a 0.5 mg/ml concentration in 50% 2-propanol and 50% 50 mM pH 6.9 ammonium acetate buffer. […] All nine reference substances were injected consecutively to establish a non-linear regression with Origin Pro 2016G.

patients = assay: Human biodistribution and uptake in tumor lesions (PET/CT, SUV); format: in vivo; details: clinical PET/CT
Description: Human biodistribution was estimated by analysing clinical ^18F-rhPSMA-7- and ^18F-rhPSMA-7.3-PET/CT exams in 47 and 32 patients, respectively.
The mean and maximum standardized uptake values (SUVmean/SUVmax) were determined for background (gluteal muscle), normal organs (salivary glands, blood pool, lung, liver, spleen, pancreas, duodenum, kidney, bladder, bone) and three representative tumor lesions. Tumor uptake was analyzed in 89 lesions (26 primary tumors/local recurrences, 23 bone, 38 lymph node and 2 visceral metastases) and 63 lesions (14 primary tumors/local recurrences, 30 bone, 18 lymph node and 1 visceral metastases) for ^18F-rhPSMA-7 and ^18F-rhPSMA-7.3, respectively.
Organ-background and Tumor-background ratios were calculated.

T1 sequence (P02768 25-609): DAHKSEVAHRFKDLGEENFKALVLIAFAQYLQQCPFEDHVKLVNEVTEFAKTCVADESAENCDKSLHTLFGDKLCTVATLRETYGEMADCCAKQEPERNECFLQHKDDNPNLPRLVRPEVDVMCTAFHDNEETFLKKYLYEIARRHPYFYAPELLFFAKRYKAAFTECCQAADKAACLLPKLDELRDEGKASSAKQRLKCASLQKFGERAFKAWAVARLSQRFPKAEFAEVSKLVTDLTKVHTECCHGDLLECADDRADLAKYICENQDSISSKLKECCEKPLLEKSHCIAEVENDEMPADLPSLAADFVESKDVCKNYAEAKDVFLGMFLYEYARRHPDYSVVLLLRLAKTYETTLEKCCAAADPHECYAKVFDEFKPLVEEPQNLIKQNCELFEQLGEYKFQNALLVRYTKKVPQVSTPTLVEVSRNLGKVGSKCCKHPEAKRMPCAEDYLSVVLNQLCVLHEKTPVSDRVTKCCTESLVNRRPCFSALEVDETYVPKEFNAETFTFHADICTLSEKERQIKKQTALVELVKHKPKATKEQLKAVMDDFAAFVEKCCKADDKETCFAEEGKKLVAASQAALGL

“[^19F][^natGa]D/L-Dap-R/S-DOTAGA-rhPSMA7 [rhPSMA7-rac]” was tested, and the “HSA Binding” value (human serum albumin) was 96.7%, the “SUVmax bladder, max” value (patients) was 112.0 and the “SUVmax bladder, mean” value (patients) was 8.5. The “SUVmax bladder, min” value (patients) was 0.5, the “SUVmax bloodpool, max” value (patients) was 3.9 and the “SUVmax bloodpool, mean” value (patients) was 2.4. For the same substance, the “SUVmax bloodpool, min” value (patients) was 1.6, the “SUVmax duodenum, max” value (patients) was 32.7 and the “SUVmax duodenum, mean” value (patients) was 14.8. The “SUVmax duodenum, min” value (patients) was 2.8, the “SUVmax kidney, max” value (patients) was 75.2 and the “SUVmax kidney, mean” value (patients) was 44.8. The “SUVmax kidney, min” value (patients) was 19.1, the “SUVmax liver, max” value (patients) was 25.2 and the “SUVmax liver, mean” value (patients) was 9.5. The “SUVmax liver, min” value (patients) was 4.5, the “SUVmax lungs, max” value (patients) was 3.1 and the “SUVmax lungs, mean” value (patients) was 1.1. The “SUVmax lungs, min” value (patients) was 0.5, the “SUVmax pancreas, max” value (patients) was 7.9 and the “SUVmax pancreas, mean” value (patients) was 3.7. For the same substance, the “SUVmax pancreas, min” value (patients) was 1.8, the “SUVmax parotic gland, max” value (patients) was 42.3 and the “SUVmax parotic gland, mean” value (patients) was 23.8. The “SUVmax parotic gland, min” value (patients) was 8.2, the “SUVmax spleen, max” value (patients) was 21.0 and the “SUVmax spleen, mean” value (patients) was 11.8. For the same substance, the “SUVmax spleen, min” value (patients) was 4.7, the “SUVmax submandibular gland, max” value (patients) was 43.8 and the “SUVmax submandibular gland, mean” value (patients) was 27.0. For the same substance, the “SUVmax submandibular gland, min” value (patients) was 10.1, the “SUVmean bladder, max” value (patients) was 85.7 and the “SUVmean bladder, min” value (patients) was 0.3. For the same substance, the “SUVmean bloodpool, max” value (patients) was 17.0, the “SUVmean bloodpool, mean” value (patients) was 2.0 and the “SUVmean bloodpool, min” value (patients) was 1.1. The “SUVmean duodenum, max” value (patients) was 23.9, the “SUVmean duodenum, mean” value (patients) was 10.9 and the “SUVmean duodenum, min” value (patients) was 1.9. The “SUVmean kidney, max” value (patients) was 54.7, the “SUVmean kidney, mean” value (patients) was 32.4 and the “SUVmean kidney, min” value (patients) was 13.2. For the same substance, the “SUVmean liver, max” value (patients) was 17.7, the “SUVmean liver, mean” value (patients) was 7.0 and the “SUVmean liver, min” value (patients) was 3.2. The “SUVmean lungs, max” value (patients) was 2.0, the “SUVmean lungs, mean” value (patients) was 0.7 and the “SUVmean lungs, min” value (patients) was 0.3. The “SUVmean pancreas, max” value (patients) was 5.5, the “SUVmean pancreas, mean” value (patients) was 2.5 and the “SUVmean pancreas, min” value (patients) was 1.3. For the same substance, the “SUVmean parotic gland, max” value (patients) was 32.7, the “SUVmean parotic gland, mean” value (patients) was 16.9 and the “SUVmean parotic gland, min” value (patients) was 5.5. The “SUVmean spleen, max” value (patients) was 17.1, the “SUVmean spleen, mean” value (patients) was 9.1 and the “SUVmean spleen, min” value (patients) was 3.4. The “SUVmean submandibular gland, max” value (patients) was 29.7, the “SUVmean submandibular gland, mean” value (patients) was 19.6 and the “SUVmean submandibular gland, min” value (patients) was 7.0. For the same substance, the “SUVmax background, max” value (patients; gluteal muscle) was 1.8, the “SUVmax background, mean” value (patients; gluteal muscle) was 1.0 and the “SUVmax background, min” value (patients; gluteal muscle) was 0.6. The “SUVmean background, max” value (patients; gluteal muscle) was 1.2, the “SUVmean background, mean” value (patients; gluteal muscle) was 0.6 and the “SUVmean background, min” value (patients; gluteal muscle) was 0.4. The “SUVmax bone, max” value (patients; non-diseased bone) was 3.1, the “SUVmax bone, mean” value (patients; non-diseased bone) was 1.7 and the “SUVmax bone, min” value (patients; non-diseased bone) was 0.8. The “SUVmean bone, max” value (patients; non-diseased bone) was 2.1, the “SUVmean bone, mean” value (patients; non-diseased bone) was 1.1 and the “SUVmean bone, min” value (patients; non-diseased bone) was 0.6. For the same substance, the “SUVmax tumor, max” value (patients; tumor lesions) was 167.2, the “SUVmax tumor, mean” value (patients; tumor lesions) was 27.6 and the “SUVmax tumor, min” value (patients; tumor lesions) was 3.1. For the same substance, the “SUVmean tumor, max” value (patients; tumor lesions) was 115.7, the “SUVmean tumor, min” value (patients; tumor lesions) was 2.1 and the “SUVmean tumor, mean” value (patients; tumor lesions, listed as 18F-rhPSMA-7) was 20.0±20.2 and 20.0. The “SUVmean bladder, mean” value (patients; listed as 18F-rhPSMA-7) was 6.3.

Source: patent publication US12357711B2, “PSMA binding dual mode radiotracer and therapeutic” (Technische Universität München, priority 2019, dated 2025)
